The structures appear in SMILES notation.

What is called melting point is the temperature of the solid-liquid transition. As for `N#CC1CN1C(=O)c1ccc(-c2ccccc2)cc1` (stereo not given), the melting point lay within 104 to 106 °C.
Take `O=C(N[C@H](Cc1ccc(C(F)(F)F)cc1)[C@@H](O)c1ccc(F)cc1)c1cccc2c1-c1ccccc1C2=O` (racemic): the melting point lay in the range of 231 to 232 °C.
The figure for `O=C(NCc1ccc(Cl)cc1)c1cn(CCc2ccccc2)c2oc(CCl)cc2c1=O` is 150 to 153 °C; for `CON(c1ccc([N+](=O)[O-])cc1Cl)S(=O)(=O)c1cc(Cl)ccc1Cl` it is 132 to 133 °C; for `CCCOc1ccc2ccccc2c1-c1c(OCCC)ccc2ccccc12` it is 87 °C.
For the compound `CCNc1nc(-n2cc(C(=O)O)c(=O)c3cc(F)c(F)c(Cl)c32)c(F)cc1F`, the melting point lay in the range of 236 to 242 °C.
`COc1cccc2c(O)c(C(=O)NCCCCN3CCN(C(c4ccccc4)c4ccccc4)CC3)cnc12` displayed a melting point of 209 to 212 °C.
The figure for `N#Cc1cc(C(=O)NNC(=O)c2occc2-c2cccc(OCCc3ccccc3)c2)ccc1O` is 131 to 134 °C; for `Cc1ccc(NCC2CCN(C(C)C)CC2)c(C(=O)Nc2ccc(F)cn2)c1` it is 58 to 60 °C.
For `CC#CN(C(C)=O)c1nc2ccccc2s1`, the melting point was in the range of 138 to 139 °C.
Take `CCCCOC(=O)c1cc(NC(=O)C2=C(C)OCCS2)ccc1Cl`: the melting point is 71 to 73 °C.
Next, `CCCCCCCCOC(=O)n1c(-c2cscn2)nc2ccccc21`: 66 to 67.5 °C; `CCSc1cc(C=NO)c(Cl)cn1`: 128 to 130 °C.
Next, `COc1cc(CCCC2OC(=O)NC2=O)ccc1OCc1csc(-c2ccccc2)n1` (stereo not given): 96 to 97 °C; `O=C1CC(SSSSC2CC(=O)NC2=O)C(=O)N1` (stereo not given): 108 to 114 °C; `CCOC(=O)c1ccc(-c2ccc(-c3cccc(OCOC)c3)c(-c3ccc4c(c3)C(C)(C)CCC4(C)C)c2)cc1`: 103 to 104 °C.
The figure for `O=C(O)C1C2CNCC21` (stereo not given) is 101 to 102 °C; for `O=c1ccn(CCO)c(C(O)c2ccc3ccccc3c2)c1OCc1ccccc1` (stereo not given) it is 110 to 112 °C; for `OCCN1CCN(C2=Nc3cc(F)ccc3Nc3ccsc32)CC1` it is 205 to 210 °C.
`COc1ccc2c(c1)[C@H]1Cc3c(cc(C)c(OC)c3C)[C@H]1N2` (relative stereo): the melting point fell in the range of 149 to 150 °C.
On to `CC(C)(C)OC(=O)N1CCN(c2cccc([N+](=O)[O-])c2)C(=O)C1`, for which the melting point fell in the range of 122 to 123 °C.
Next, `O=C(O)c1cn(-c2cccnc2)cn1`: 265 to 266 °C; `CCCCc1ncc(/C=C(\Cc2cccs2)c2nnn[nH]2)n1Cc1ccccc1[N+](=O)[O-]`: 231 to 234 °C.
The figure for `COc1cc2ccc(C(=O)c3ccccc3)cc2cc1OC` is 124 to 125 °C.
In turn, `CC(C)(C)c1ccc(N2CCOCC2)c(NP(=O)(O)O)c1` came in with a melting point of 79 to 83 °C.
Next, `Nc1nc2ccccc2n1-c1cccc(-n2c(N)nc3ccccc32)c1`: 270 °C; `CCCCS(=O)(=O)On1nnc2ccc(Cl)cc21`: 72 to 74 °C; `N#CC1(Cc2ccccc2)CCN(Cc2ccccc2)CC1`: 92 °C.
Turning to `COc1ccc(CN2C(=O)C(C)(c3cc(C(=O)N(C)CC(F)(F)F)ccc3Cl)c3cc(Cl)ccc32)c(OC)c1` (stereo not given), the melting point is 89 °C.
Regarding `O=C(NC(=NCCCc1c[nH]cn1)NCCSCc1csc(N=C2NCCCN2)n1)c1ccccc1`, the melting point was in the range of 175 to 176 °C.
Next, `COc1ccc(-c2nc3cccc(C(=O)NC4CC5CCCC(C4)N5C)c3o2)cc1` (stereo not given): 160 to 162 °C; `CCCCC(CC)(CO)C(=O)O` (stereo not given): 45 to 46 °C; `Cc1cn(C)c2c1N(C(=O)CN1CCN(C)CC1)c1ccccc1NC2=O`: 205 to 207 °C.
Next, `NCc1ccc(N2CC(CN3CCC(CC(=O)O)CC3)OC2=O)cc1` (stereo not given): 135 °C; `CCOC(=O)[C@@H](CO)NCc1c(N)cccc1Cl`: 73 to 75 °C.
Next, `Cc1ccc(C(=O)c2ccc(CC#N)n2C)s1`: 118 to 121 °C; `Fc1ccc(N=Cc2ccccc2)c(F)c1`: 51 to 52 °C.
For `CC(C)(C)OC(=O)N1CCN(c2ccc(OC[C@@]3(C)Cn4cc([N+](=O)[O-])nc4O3)cc2Cl)CC1`, the melting point was in the range of 207 to 210 °C.
`Cc1nc(-c2ccc(S(C)(=O)=O)cc2)c(-c2ccc(F)cc2)s1` returned a melting point of 134 to 135 °C.
`CC(=O)N(Cc1cccnc1)c1ccc(Cl)cc1` registered a melting point of 64 to 65 °C.
Compound `CCCC(=NOCC)C1=C(O)CC(c2c(C)c3c(c(C)c2Cl)CC(C)(C)C3)CC1=O` (stereo not given) gave a melting point of 93 to 94 °C.
In turn, `CC(C)(C)OC(=O)NCCCCn1c(-c2ccccc2)nc2c(N)nc3ccccc3c21` came in with a melting point of 182 to 183 °C.
In the case of `CN(C)C=NC(=N[N+](=O)[O-])NC1CC1`, the melting point lay within 120 to 122 °C.
For the compound `COC(=O)C1=C(N)C(=O)NCC1`, the melting point is 192 to 194 °C.
`C#CCNC(=S)Cc1ccccn1`: the melting point fell in the range of 62 to 63 °C.
Next, `CNC1=Nc2ccc(Cl)cc2N(c2ccccc2)C(=O)C1`: 215 to 217 °C; `Cc1cn2c(nc1=O)CCC2`: 82 °C.
The figure for `CCCCc1nn2cccc(C(=O)OCC)c2c1C(=O)c1ccc(Br)cc1` is < 50 °C; for `COP(=O)(Cc1cc(C)c(CP(=O)(OC)OC)cc1C)OC` it is 121 to 123 °C.
The figure for `CC1=C(C(=O)OC(C)(C)C)C(c2cccc(F)c2)C(C(=O)OC(C)(C)C)=C(C)N1` is 178 to 179 °C.
As for `Cc1cc2c(cc1Cl)C(Br)(c1ccccc1Cl)C(=O)N2` (stereo not given), the melting point lay within 109 to 111 °C.
The figure for `COc1cccc(CC(=O)O)c1OCCCc1cn(-c2ccc(C(F)(F)F)nn2)nc1C(C)C` is 92 to 93 °C; for `Cc1c(NC(=O)CC(C)(C)C)cc2c(c1C)OC(C)(C)C2(O)CCc1ccccc1` (stereo not given) it is 99 to 100 °C.
In turn, `O=C(Nc1cccc(C(F)(F)F)c1)c1ccccc1[N+](=O)[O-]` gave a melting point of 134 to 135 °C.
Next, `CS(=O)(=O)OCCCc1ccccc1OCc1coc(/C=C/c2ccccc2)n1`: 93 to 94 °C; `OCCCSc1nc2ccc(Cc3ccccc3)cc2[nH]1`: 103 to 105 °C; `CCOC(=O)c1cn(C2CC2)c2nc(S(=O)(=O)c3ccc(C)cc3)c(F)cc2c1=O`: 216 to 218 °C.
In turn, `C=CCN(CC=C)Cc1noc(-c2ncn3c2CN(C)C(=O)c2c(Cl)cccc2-3)n1` showed a melting point of 125 to 130 °C.
Next, `CS(=O)(=O)NC1CCC(=O)N2CCCC(C(=O)NC(CC(=O)O)C(=O)COc3cccnc3)N2C1=O` (stereo not given): 120 to 125 °C.
Next, `O=C1NC(=O)C(Cc2ccc(OCCN3C(=O)SC(c4ccccc4)C3=O)cc2)S1` (stereo not given): 67 °C; `OCc1cc(I)ccc1F`: 42 °C; `O=C(c1ccccc1)N(CCN1CCC(Nc2nc3ccccc3n2Cc2ccc(F)cc2)CC1)c1nccs1`: 156 °C.
The figure for `COCOc1ccc(C=C2CCCC(=Cc3ccc(OCOC)c(OC)c3)C2=O)cc1OC` is 73 to 75 °C.
The compound `S=C=Nc1ccc2nc(Oc3ccccc3)sc2c1` returned a melting point of 118 to 119 °C.
The figure for `O=[N+]([O-])c1c(NCCCO)cccc1NCCCO` is 90 °C.
The figure for `BrCCc1ccc2c(c1)CCC2` is 57.8 to 58.1 °C; for `COCCCn1c2ccc(O)cc2c2c3c(c(-c4ccccc4Cl)cc21)C(=O)NC3=O` it is 260 to 262 °C.
Next, `O=C(c1ccc(Br)cc1)c1ccc([N+](=O)[O-])cc1`: 123 to 124 °C; `CC(C)C(=O)NCCO`: 54 to 57 °C; `Cc1ccnc(CO)c1Br`: 75 to 77 °C.
In the case of `O=C(O)C1=Cc2ccc(OCc3ccccc3)cc2CC1`, the melting point lay in the range of 202 to 205 °C.
The figure for `COCc1ccc(Cl)c(C2(C)C(=O)N(Cc3ccc(OC)cc3OC)c3ccc(Cl)cc32)c1` (stereo not given) is 122 °C; for `Cc1ccc(S(=O)(=O)C(=[N+]=[N-])C(=O)C(C)(C)C)cc1` it is 120 to 122 °C.
With `CC(C)c1ccc2oc3cc(C#N)c(O)nc3c(=O)c2c1`, the melting point is > 300 °C.
Next, `Nc1ncnc2[nH]c(=O)sc12`: > 370 °C; `CS(=O)(=O)c1cccc(-c2ccccc2NC(=S)NC(=O)c2ccccc2)c1`: 179 to 180 °C.
With `CCOC(=O)c1cc(OCc2ccccc2)cc(OCc2ccccc2)c1`, the melting point lay in the range of 63 to 65 °C.
The figure for `Cc1cc(-n2c(C)nc3ccccc32)ccc1[N+](=O)[O-]` is 144 to 146 °C; for `COc1ccc(-c2nc(CNC(=O)c3ccc4n3Cc3ccccc3N(C(=O)c3ccc(-c5ccccc5C)c(C)c3)C4)no2)cc1` it is 133 to 135 °C; for `COC(=O)c1ccc(-c2cccc(N)c2)cc1` it is 145 to 148 °C.
The figure for `COCCCC(=O)c1cc(C(=O)O)c2cc(Cc3ccc(F)cc3)cnc2c1O` is 226 to 228 °C; for `CCOC(=O)C1CCc2c(c(C)nn2C)C1=O` (stereo not given) it is 76.5 to 79 °C.
Turning to `CCSc1nsc(NC(=O)N(C)C)c1C#N`, the melting point is 198 °C.
With `COc1ccc(/C=C(\C#N)c2ccsc2)cc1OC1CCCC1`, the melting point fell in the range of 83 to 84 °C.
The figure for `O=C(c1ccc(-c2ccc(=O)[nH]n2)cc1)N1CCC[C@H]1CN1CCCC1` is 62 to 66 °C; for `OCCc1ccc2c(c1)C(O)c1ccccc1CO2` (stereo not given) it is 135 to 137 °C; for `O=C(Nc1ccc(S(=O)(=O)Cl)cc1)c1ccccc1` it is 176 to 178 °C.
The figure for `CCOC(=O)c1c(O)c2cnc(-c3ccccc3)nc2n(Cc2ccccc2)c1=O` is 230 to 231 °C.
Next, `CN(C)CCNc1ccc(C=O)c2sc3ccc(O)cc3c(=O)c12`: 219 to 220 °C; `CC(=O)Nc1c([N+](=O)[O-])cc(Br)c2c1CN(C(C)=O)CC2`: 173 to 175 °C.

Source of the values: a melting point compilation (Tetko et al.; mined from patent text by program, amines drawn as free bases though some values may be those of a salt).
